Laboratory results: EP0343961B1, “Aryl- and heteroaryl piperazinyl carboxamides having central nervous system activity” (priority 1988, dated 1989)
Like-named read-outs stand apart in the source and are kept apart here.

Key:
[1] = biological target: T1, 5-HT1A serotonin receptor (Rattus norvegicus, UniProt P19327); experiment: inhibition of 5-HT1A serotonin receptor binding (3H-8-OH-DPAT); set-up: species or system male Sprague Dawley rats; settings: rat hippocampal tissue; for inhibition at 0.1 µM: at 100 nM
T1 construct: Hippocampal tissue from male Sprague Dawley rats is dissected and homogenized; from tissue; host or cells: hippocampus of male Sprague Dawley rats, membrane homogenate
T1 sequence (P19327 1-422): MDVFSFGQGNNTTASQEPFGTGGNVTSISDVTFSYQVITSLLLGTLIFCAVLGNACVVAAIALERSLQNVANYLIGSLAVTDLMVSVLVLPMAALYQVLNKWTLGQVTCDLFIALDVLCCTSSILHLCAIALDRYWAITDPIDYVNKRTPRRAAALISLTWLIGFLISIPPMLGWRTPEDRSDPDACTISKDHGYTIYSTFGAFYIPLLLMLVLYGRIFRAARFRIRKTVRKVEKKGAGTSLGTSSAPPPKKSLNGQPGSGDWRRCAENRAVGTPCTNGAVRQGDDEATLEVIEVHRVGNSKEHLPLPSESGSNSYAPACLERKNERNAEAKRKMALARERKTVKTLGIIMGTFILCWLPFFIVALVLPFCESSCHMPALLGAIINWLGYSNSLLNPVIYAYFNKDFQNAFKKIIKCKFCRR
Description: The assay is carried out as follows: Hippocampal tissue from male Sprague Dawley rats is dissected and homogenized on ice in 40 volumes of buffer A (50 mM Tris HCl, pH = 7.7) using a Polytron homogenizer at setting 5 for 3 x 15 second bursts. The homogenate is then centrifuged at 20,000 rpm (RC5-B; 50,000 g) and the supernatant discarded. The pellet is resuspended in 40 volumes of the same buffer and incubated at 37°C for 10 minutes to aid in the removal of endogenous serotonin. The homogenate is then centrifuged (as above) and the supernatant discarded. The pellet is then resuspended in 100 volumes of buffer B (50 mM Tris HCl, pH = 7.7 containing 0.1% ascorbate, 10 µM pargyline and 4 mM CaCl₂) and sonicated. An aliquot is taken for protein determination by the Lowry method and the remainder stored frozen at -70°C until used.
The homogenate (50 µL; 0.4-0.6 mg protein/sample) is incubated with 100 µL (1.5-1.8 nM) ³H-8-hydroxy-2-(di-n-propylamino)tetraline (³H-8-OH-DPAT) in a final volume of 2 mL of buffer for 10 minutes at 37°C. At the end of the incubation, 3 mL of cold buffer A are added to each tube, and the contents rapidly filtered through Whatman GF/B glass filters. The filters are then rapidly washed 2 times with 3 mL of the same buffer, placed in scintillation vials, and shaken for 15 minutes with 10 mL of Hydrofluor (National Diagnostics) scintillation cocktail. The vials are then counted in a Packard 460 CD scintillation counter.
Specific binding is defined as total binding less binding in the presence of excess unlabeled serotonin (1 µM). Binding in the presence of various concentrations of test drug is expressed as a percent of specific binding when no drug is present. […] Linear regression analysis then yields a straight line with 95% confidence limits from which an IC₅₀ can be inversely predicted.

[2] = biological target: T2, 5-HT₂ (Rattus norvegicus, UniProt P14842); experiment: 5-HT2 inhibition of 3H-spiroperidol binding, brain cortex homogenate; settings: read-out: % Inhibition at 1 µM 5-HT₂
T2 construct: employing rat brain cortex homogenate as the receptor tissue; from tissue; host or cells: rat brain cortex, membrane homogenate
T2 sequence (P14842 whole entry): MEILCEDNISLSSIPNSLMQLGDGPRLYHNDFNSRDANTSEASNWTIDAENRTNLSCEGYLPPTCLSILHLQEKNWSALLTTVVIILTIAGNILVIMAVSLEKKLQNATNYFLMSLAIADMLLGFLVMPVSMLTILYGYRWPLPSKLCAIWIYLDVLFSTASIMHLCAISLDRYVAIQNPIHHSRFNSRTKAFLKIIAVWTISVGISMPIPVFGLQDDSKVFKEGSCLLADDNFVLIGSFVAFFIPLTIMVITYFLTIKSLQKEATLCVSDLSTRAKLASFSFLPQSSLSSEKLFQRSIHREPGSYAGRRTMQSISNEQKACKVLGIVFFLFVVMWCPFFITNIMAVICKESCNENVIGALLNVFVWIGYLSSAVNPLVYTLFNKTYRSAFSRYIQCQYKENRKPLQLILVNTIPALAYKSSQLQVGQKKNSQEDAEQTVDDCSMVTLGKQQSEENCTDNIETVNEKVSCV

[3] = biological target: T3, M2 receptor (Rattus norvegicus, UniProt P10980); experiment: M2 receptor binding ([3H] quinuclidinyl benzilate, cerebellum tissue); settings: [3H] quinuclidinyl benzilate 0.23 nM, read-out: IC₅₀for M₂
T3 sequence (P10980 1-466): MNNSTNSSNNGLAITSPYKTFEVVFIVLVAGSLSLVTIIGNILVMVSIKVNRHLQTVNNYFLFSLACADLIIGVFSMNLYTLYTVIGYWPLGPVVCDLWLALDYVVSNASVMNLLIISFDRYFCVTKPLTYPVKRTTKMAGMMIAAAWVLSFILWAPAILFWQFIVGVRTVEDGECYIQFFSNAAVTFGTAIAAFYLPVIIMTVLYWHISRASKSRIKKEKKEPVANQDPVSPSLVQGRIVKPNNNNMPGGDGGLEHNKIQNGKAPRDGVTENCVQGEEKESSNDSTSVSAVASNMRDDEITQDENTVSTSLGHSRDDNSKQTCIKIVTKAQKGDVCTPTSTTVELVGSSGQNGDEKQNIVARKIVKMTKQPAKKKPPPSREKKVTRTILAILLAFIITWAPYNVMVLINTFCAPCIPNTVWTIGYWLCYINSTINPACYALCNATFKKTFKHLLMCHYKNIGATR

[4] = biological target: T4, M1 muscarinic receptor (Rattus norvegicus, UniProt P08482); experiment: M1 muscarinic receptor binding ([3H] pirenzipine, hippocampus tissue)
T4 construct: from tissue; host or cells: rat hippocampus, membrane fraction
T4 sequence (P08482 1-460): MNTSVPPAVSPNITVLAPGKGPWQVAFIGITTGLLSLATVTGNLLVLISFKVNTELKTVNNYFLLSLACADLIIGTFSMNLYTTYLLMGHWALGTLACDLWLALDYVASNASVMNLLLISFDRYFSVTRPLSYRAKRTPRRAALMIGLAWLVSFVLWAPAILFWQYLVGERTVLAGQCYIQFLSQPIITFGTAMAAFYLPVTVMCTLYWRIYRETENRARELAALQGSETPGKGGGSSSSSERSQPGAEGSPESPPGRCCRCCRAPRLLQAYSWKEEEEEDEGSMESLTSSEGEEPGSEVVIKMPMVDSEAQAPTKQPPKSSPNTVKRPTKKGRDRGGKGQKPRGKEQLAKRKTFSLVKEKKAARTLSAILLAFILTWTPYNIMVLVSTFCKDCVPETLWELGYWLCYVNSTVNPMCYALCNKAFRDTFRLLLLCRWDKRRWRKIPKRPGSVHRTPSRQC
Description: The M1 muscarinic receptor binding properties of the compounds of this invention were established as follows:
The resulting pellet is resuspended in the original volume of 0.32 M aqueous sucrose. The sample is then diluted 1:2 in 10 mM Na₂HPO₄/KH₂PO₄ buffer (pH = 7.4). A 100 µL sample of the buffered tissue suspension is incubated at 25°C for 60 minutes in the dark with 10 µL of test compound or vehicle for control and [³H] pirenzipine (0.5 nM, 0.04 µCi) q.s. 1 milliliter with the buffer solution. Atropine sulfate (2 µM) is added to half the samples being processed. Binding is terminated by vacuum filtration onto Whatman GF/B filters which are washed three times with the buffer solution (3 ml/wash, 4°C). […] Specific [³H] PZ binding is defined as total binding minus binding in the presence of 2 µM atropine sulfate.

[5] = at 1 µM, rat brain cortex homogenate, 3H-spiroperidol

inhibition at 1 µM [1] [%] | SMILES | further results
98 | COc1ccccc1N1CCN(CCCNC(=O)C23CC4CC(CC(C4)C2)C3)CC1 [Example 1, N-[3-[4-(2-Methoxyphenyl)-1-piperazinyl]propyl]tricyclo[3.3.1.1^3,7]decan-1-carboxamide] | Ki [1]: 1 nM; inhibition at 1 µM [2, 5]: 92%
97 | O=C(NCCN1CCN(c2ncccn2)CC1)C12CC3CC(CC(C3)C1)C2 [Example 2, N-[2-[4-(2-Pyrimidyl)-1-piperazinyl]ethyl]tricyclo[3.3.1.1^3,7]decane-1-carboxamide] | Ki [1]: 1 nM; inhibition at 1 µM [2, 5]: 91%
97 | COc1ccccc1N1CCN(CCNC(=O)C23CC4CC(CC(C4)C2)C3)CC1 [Example 3, N-[2-[4-(2-Methoxyphenyl)-1-piperazinyl]ethyl]tricyclo[3.3.1.1^3,7]decane-1-carboxamide] | 
100 | O=C(NCCN1CCN(c2cccc(Cl)c2)CC1)C12CC3CC(CC(C3)C1)C2 [Example 4, N-[2-[4-(3-Chlorophenyl)-1-piperazinyl]ethyl]tricyclo[3.3.1.1^3,7]decane-1-carboxamide] | 
83 | O=C(NCCN1CCN(c2ncccn2)CC1)c1cc2ccccc2o1 [Example 5, N-[2-[4-(2-Pyrimidyl)-1-piperazinyl]ethyl]benzofurane-2-carboxamide] | 
94 | COc1ccccc1N1CCN(CCCNC(=O)c2cc3ccccc3o2)CC1 [Example 6, N-[3-[4-(2-Methoxyphenyl)-1-piperazinyl]propyl]benzofurane-2 carboxamide] | 
91 | COc1ccccc1N1CCN(CCCNC(=O)c2cc3ccccc3[nH]2)CC1 [Example 7, N-[3-[4-(2-Methoxyphenyl)-1-piperazinyl]propyl]-(1H)-indole-2 carboxamide] | 
94 | O=C(NCCCN1CCN(c2cccc(Cl)c2)CC1)C12CC3CC(CC(C3)C1)C2 [Example 8, N-[3-[4-(3-Chlorophenyl)-1-piperazinyl]propyl]tricyclo[3.3.1.1^3,7]decane-1-carboxamide] | 
93 | CC12CC3CC(C1)CC(CC(=O)NCCN1CCN(c4ncccn4)CC1)(C3)C2 [Example 9, N-[2-[4-(2-Pyrimidyl)-1-piperazinyl]ethyl]-3-methyltricyclo[3.3.1.1^3,7]decane-1-acetic Acid Carboxamide] | 
82 | O=C(NCCCN1CCN(c2ncccn2)CC1)C12CC3CC(CC(C3)C1)C2 [Example 10, N-[3-[4-(2-Pyrimidyl)-1-piperazinyl]propyl]tricyclo[3.3.1.1^3,7]decane-1-carboxamide] | 
91 | CC12CC3CC(C1)CC(CC(=O)NCCN1CCN(c4cccc(Cl)c4)CC1)(C3)C2 [Example 11, N-[2-[4-(3-Chlorophenyl)-1-piperazinyl]ethyl]-3-methyltricyclo[3.3.1.1^3,7]decane-1-acetic Acid Carboxamide] | 
98 | COc1ccccc1N1CCN(CCNC(=O)CC23CC4CC(CC(C)(C4)C2)C3)CC1 [Example 12, N-[2-[4-(2-Methoxyphenyl)-1-piperazinyl]ethyl]-3-methyltricyclo[3.3.1.1^3,7]decane-1-acetic Acid Carboxamide] | 
97 | O=C(NCCN1CCN(c2ncccn2)CC1)C12CC3CC(CC1C3)C2 [Example 13, N-[2-[4-(2-Pyrimidyl)-1-piperazinyl]ethyl]hexahydro-2,5-methanopentalene-3a(1H)-carboxamide] | 
 | COc1ccccc1N1CCN(CCNC(=O)C23CC4CC(CC2C4)C3)CC1 [Example 14, N-[2-[4-(2-Methoxyphenyl)-1-piperazinyl]ethyl]hexahydro-2,5-methanopentalene-3a(1H)-carboxamide] | inhibition at 0.1 µM [1]: 100%
 | O=C(NCCN1CCN(c2cccc(Cl)c2)CC1)C12CC3CC(CC1C3)C2 [Example 15, N-[2-[4-(3-Chlorophenyl)-1-piperazinyl]ethyl]hexahydro-2,5-methanopentalene-3a(1H)-carboxamide] | inhibition at 0.1 µM [1]: 99%; IC50 [3]: 11 µM; IC50 ([4]; rat hippocampus, [3H] pirenzipine 0.5 nM, read-out: IC₅₀for M₁): 240 nM; M₂/M₁ Ratio ([4]; ratio of IC50 for M2 to IC50 for M1): 46
88 | O=C(NCCCN1CCN(c2ncccn2)CC1)C12CC3CC(CC1C3)C2 [Example 17, N-[3-[4-(2-Pyrimidyl)-1-piperazinyl]propyl]hexahydro-2,5-methanopentalene-3a(1H)-carboxamide] | Ki [1]: 67 nM
99 | COc1ccccc1N1CCN(CCCNC(=O)C23CC4CC(CC2C4)C3)CC1 [Example 18, N-[3-[4-(2-Methoxyphenyl)-1-piperazinyl]propyl]hexahydro-2,5-methanopentalene-3a(1H)-carboxamide] | 
 | O=C(NCCCN1CCN(c2cccc(Cl)c2)CC1)C12CC3CC(CC1C3)C2 [Example 19, N-[3-[4-(3-Chlorophenyl)-1-piperazinyl]propyl]hexahydro-2,5-methanopentalene-3a(1H)-carboxamide] | inhibition at 0.1 µM [1]: 75%; Ki [1]: 20 nM
 | CC1(C)CC(=O)N(CCCCN2CCN(c3ncccn3)CC2)C(=O)C1 [Gepirone, 4,4-dimethyl-1-[4-[4-(2-pyrimidinyl)-1-piperazinyl]-butyl]-2,6-piperidinedione, reference compound] | inhibition at 1 µM [2]: 20%

SMILES | inhibition at 1 µM [1] [%] | further results
O=C1CC2(CCCC2)CC(=O)N1CCCCN1CCN(c2ncccn2)CC1 [Buspirone, reference compound] | 94 | 
